The values below come from ChEMBL document CHEMBL5032524, “Discovery of novel IDO1 inhibitors targeting the protein's apo form through scaffold hopping from holo-IDO1 inhibitor” (Bioorg Med Chem Lett, 2021).

The structures appear in SMILES notation.

The first test deals with T1, Indoleamine 2,3-dioxygenase 1 (Homo sapiens, UniProt P14902). Kind of test: Inhibition of recombinant human IDO1.
T1 sequence (P14902 whole entry): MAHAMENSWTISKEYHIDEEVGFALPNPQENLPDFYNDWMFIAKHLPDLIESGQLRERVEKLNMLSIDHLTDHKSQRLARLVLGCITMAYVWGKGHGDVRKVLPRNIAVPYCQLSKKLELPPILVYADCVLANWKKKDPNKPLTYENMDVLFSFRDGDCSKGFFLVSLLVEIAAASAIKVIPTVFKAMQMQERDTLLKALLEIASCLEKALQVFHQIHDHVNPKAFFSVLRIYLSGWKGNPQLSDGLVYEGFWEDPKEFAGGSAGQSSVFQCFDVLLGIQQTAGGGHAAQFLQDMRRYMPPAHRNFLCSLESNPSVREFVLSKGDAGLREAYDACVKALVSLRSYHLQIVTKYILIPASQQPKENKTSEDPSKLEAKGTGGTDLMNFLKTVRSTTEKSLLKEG
The term IC50 denotes the midpoint of a concentration-inhibition curve. For the molecule `CCCNC(=O)Nc1cc(/C(=N/O)Nc2ccc(F)c(Br)c2)ccc1N(CC(C)C)CC(C)C`, the IC50 amounted to 2.9 µM.
For `Cc1ccc(N/C(=N\O)c2ccc(N(CC(C)C)CC(C)C)c(NC(=O)Nc3cncnc3)c2)cc1`, the concentration for half-maximal inhibition (IC50) worked out at 2.32 µM.
Take `CC(C)CN(CC(C)C)c1ccc(/C(=N/O)Nc2ccc(F)c(Br)c2)cc1NC(=O)Nc1cncnc1`: the IC50 was more than 3 µM.
As to `Cc1ccc(NC(=O)Nc2cc(/C(=N/O)Nc3ccc(C)cc3)ccc2N(CC(C)C)CC(C)C)cc1`, the IC50 came out at 1.56 µM.
In the case of `Cc1ccc(NC(=O)Nc2cc(/C(=N/O)Nc3ccc(F)c(Br)c3)ccc2N(CC(C)C)CC(C)C)cc1`, the IC50 turned out to be 2.3 µM.
Regarding `CC(C)CN(CC(C)C)c1ccc(/C(=N/O)Nc2ccc(F)c(Br)c2)cc1NC(=O)Nc1ccc(Cl)cc1`, the IC50 is 1.49 µM.
`CC(C)CN(CC(C)C)c1ccc(/C(=N/O)Nc2ccc(F)c(Br)c2)cc1NC(=O)Nc1ccc(C(F)(F)F)cc1`: the IC50 is more than 3 µM.
Take `CCCCNC(=O)Nc1cc(/C(=N/O)Nc2ccc(F)c(Br)c2)ccc1N(CC(C)C)CC(C)C`: the concentration for half-maximal inhibition (IC50) was more than 3 µM.
On the same count and under the same terms, for `CC(C)CN(CC(C)C)c1ccc(/C(=N/O)Nc2ccc(F)c(Br)c2)cc1NC(=O)NC1CCCCC1` the value was more than 3 µM; for `CCCNC(=O)Nc1nonc1/C(=N/O)Nc1ccc(F)c(Br)c1`, 0.127 µM.

For another test, the target named is T1, Indoleamine 2,3-dioxygenase 1. Kind of test: Inhibition of IDO1 in human HeLa cells. The format is cell-based.
In turn, `CCCNC(=O)Nc1cc(/C(=N/O)Nc2ccc(F)c(Br)c2)ccc1N(CC(C)C)CC(C)C` showed a 50% inhibitory concentration (IC50) of 2.61 µM.
`Cc1ccc(N/C(=N\O)c2ccc(N(CC(C)C)CC(C)C)c(NC(=O)Nc3cncnc3)c2)cc1` showed a concentration for half-maximal inhibition (IC50) of 0.44 µM.
`CC(C)CN(CC(C)C)c1ccc(/C(=N/O)Nc2ccc(F)c(Br)c2)cc1NC(=O)Nc1cncnc1` came in with an IC50 of 0.86 µM.
Consider `Cc1ccc(NC(=O)Nc2cc(/C(=N/O)Nc3ccc(C)cc3)ccc2N(CC(C)C)CC(C)C)cc1`, for which 1.34 µM corresponded to half-maximal inhibition (IC50).
Same read-out and setting: for `Cc1ccc(NC(=O)Nc2cc(/C(=N/O)Nc3ccc(F)c(Br)c3)ccc2N(CC(C)C)CC(C)C)cc1` the value was 0.76 µM; for `CC(C)CN(CC(C)C)c1ccc(/C(=N/O)Nc2ccc(F)c(Br)c2)cc1NC(=O)Nc1ccc(Cl)cc1`, 0.44 µM.
Consider `CC(C)CN(CC(C)C)c1ccc(/C(=N/O)Nc2ccc(F)c(Br)c2)cc1NC(=O)Nc1ccc(C(F)(F)F)cc1`, for which the IC50 was 2.09 µM.
For the molecule `CCCCNC(=O)Nc1cc(/C(=N/O)Nc2ccc(F)c(Br)c2)ccc1N(CC(C)C)CC(C)C`, the IC50 was found to be 3.11 µM.
Consider `CC(C)CN(CC(C)C)c1ccc(/C(=N/O)Nc2ccc(F)c(Br)c2)cc1NC(=O)NC1CCCCC1`, for which the 50% inhibitory concentration (IC50) was 1.34 µM.
